Measured values from US20170314056A1, “METHOD OF USING NEAR INFRARED FLUORESCENT DYES FOR IMAGING AND TARGETING CANCERS” (priority 2010, published 2017).
Entries after “also recorded” stand apart in the source; their conditions may differ.

Legend:
[1] = system: organic anion transporting peptides (OATPs); experiment: Blockade of dye uptake into ARCaPM cells by BSP; assay type: cell-based, human; conditions: 250 μM BSP
Procedure: ARCaPM Cells were plated on live-cell imaging chambers from World Precision Instrument (Sarasota, Fla.) overnight. Cells were treated with 20 μM IR-780 and 250 μM BSP at the same time and cells were imaged using a Perkin-Elmer Ultraview ERS spinning disc confocal microscope.
To determine if the cyanine dye uptake and accumulation in cancer cells was dependent upon OATPs, cells were preincubated with 250 μM bromosulfophthalein (BSP), a competitive inhibitor of organic anion transporting peptides (OATPs) (25), for 5 minutes prior to incubating the cells with cyanine dyes. The uptake and accumulation of cyanine dyes in the presence and absence of BSP were conducted in the stage warmer incubator for a period of 35 minutes. The levels of cyanine dye taken up and accumulated in normal prostate (P69) and prostate cancer (ARCaPM) cells were determined and compared on a real-time basis.

[2] = mouse, in vivo
Procedure: In control mice, the same volume of PBS was injected. The body weight and lethality of these mice were closely followed for 28 days.

[3] = system: human renal cancer SN12C at subcutaneous sites; experiment: Structural requirement of uptake and retention by tumor tissues in mice; assay type: in vivo; conditions: i.p. 10 nmol per mouse, 24 hrs
Procedure: FIG. 46 depicts structural requirement of the uptake and retention of heptamethine cyanine dyes by tumor tissues in mice in accordance with various embodiments of the present invention. Mice bearing human renal cancer SN12C at subcutaneous sites were injected i.p. with MHI-148, IR-1, IR-2, IR-3 and IR-4 heptamethine cyanine dyes at a dose of 10 nmol per mouse. Whole-body optical imaging was taken at 24 hrs using a Kodak Imaging System.
During imaging, mice were maintained in an anesthetized state.

[4] = system: MIA PaCa-2 human pancreatic cancer cells; experiment: Structural requirement screen for cancer cell uptake and retention; assay type: cell-based; conditions: cultured MIA PaCa-2 cells
Procedure: FIG. 45 depicts structural requirement of heptamethine cyanine dyes for cancer cell uptake and retention in accordance with various embodiments of the present invention. A series of heptamethine cyanine dyes and their derivatives were screened in cultured MIA PaCa-2 human pancreatic cancer cells with parental MHI-148 served as a positive control.
Cells (1×10^4/well) were seeded on vitronectin-coated four-well chamber slides (Nalgen Nunc, Naperville, Ill.) and incubated with T-medium containing 5% FBS for 24 h. After the cells had attached to the chamber slides, the cells were washed with PBS (Phosphate Buffered Saline) and exposed to the cyanine dye at a concentration of 20 μM in T-medium. The slides were incubated at 37° C. for 30 min, washed twice with PBS to remove excess dyes, and cells were fixed with 10% formaldehyde at 4° C. The slides were then washed twice with PBS and covered with glass coverslips with an aqueous mounting medium (Sigma-Aldrich, St. Louis, Mo.). Images were recorded by confocal laser microscopy (Zeiss LSM 510 META, Germany) using a 633 nm excitation laser and 670-810 nm long pass filter, or a fluorescence microscope (Olympus 1×71; Olympus, Melville, N.Y.) equipped with a 75 W Xenon lamp and an Indo-Cyanine Green filter cube (excitation 750-800 nm; emission 820-860 nm) (Chroma, Rockingham, Vt.).

[5] = system: cultured human cancer cell lines in vitro and their xenograft tumors in vivo; experiment: Classification of heptamethine cyanine dyes as active or inactive; assay type: cell-based; design: key: Active: Activity of the dyes denotes specific uptake by cultured human cancer cell lines in vitro and their xenograft tumors in vivo, setermined by NIR fluorescence imaging.; Inactive: These heptamethine cyanine dyes were not accumulated in tumor cells in vitro and xenograft tumors in vivo; conditions: specific uptake in vitro and in xenograft tumors in vivo, NIR fluorescence imaging
Text: A comparative analysis also uncovered several common structural features of heptamethine cyanine dyes accounting for their preferential uptake and retention by cancer cells. […] A rigid cyclohexenyl ring in the heptamethine chain with a central chlorine atom maintains photostability, increases quantum yield, decreases photobleaching, and reduces dye aggregation in solution (1).

| SMILES | effect on uptake of IR-780 by ARCaPM cells ([1]; 20 μM IR-780) | effect on uptake of IR-783 by ARCaPM cells ([1]; 20 μM IR-783) | toxicity as evidenced by gains of body weight [2] | tumor fluorescence signal in whole-body optical imaging [3] | uptake and retention by cancer cell line compared with MHI-148 [4] | Active and inactive heptamethine cyanine dyes [5] |
| --- | --- | --- | --- | --- | --- | --- |
| O=C1OC(c2ccc(O)c(S(=O)(=O)O)c2)(c2ccc(O)c(S(=O)(=O)O)c2)c2c(Br)c(Br)c(Br)c(Br)c21 [BSP, bromosulfophthalein] | complete blockade; also recorded: significantly inhibited | abolished; also recorded: abrogated |  |  |  |  |
| CC1(C)C(/C=C/C=C/C=C/C=C2\N(CCCCS(=O)(=O)O)c3ccc4ccccc4c3C2(C)C)=[N+](CCCCS(=O)(=O)[O-])c2ccc3ccccc3c21 [ICG, indocyanine green, reference compound] |  |  | no toxicity was detected |  |  |  |
| CC1(C)/C(=C\C=C2/CCCC(/C=C/C3N(CCCO)c4ccccc4C3(C)C)=C2Cl)N(CCCO)c2ccccc21 (stereo not drawn) [IR-1] |  |  |  | background fluorescence signals | devoid of any uptake and retention | Inactive dyes^b |
| CC(=O)OCCCN1/C(=C/C=C2\CCCC(/C=C/C3N(CCCOC(C)=O)c4ccccc4C3(C)C)=C2Cl)C(C)(C)c2ccccc21 (stereo not drawn) [IR-2] |  |  |  | background fluorescence signals | devoid of any uptake and retention | Inactive dyes^b |
| CC1(C)/C(=C\C=C2/CCCC(/C=C/C3N(CCCN)c4ccccc4C3(C)C)=C2Cl)N(CCCN)c2ccccc21 (stereo not drawn) [IR-3] |  |  |  | background fluorescence signals | devoid of any uptake and retention | Inactive dyes^b |
